Assay [1] concerns the target T1, Adrenergic receptor alpha-2 (Rattus norvegicus, UniProt P22086+P19328+P22909).
T1 sequence (P22086 whole entry): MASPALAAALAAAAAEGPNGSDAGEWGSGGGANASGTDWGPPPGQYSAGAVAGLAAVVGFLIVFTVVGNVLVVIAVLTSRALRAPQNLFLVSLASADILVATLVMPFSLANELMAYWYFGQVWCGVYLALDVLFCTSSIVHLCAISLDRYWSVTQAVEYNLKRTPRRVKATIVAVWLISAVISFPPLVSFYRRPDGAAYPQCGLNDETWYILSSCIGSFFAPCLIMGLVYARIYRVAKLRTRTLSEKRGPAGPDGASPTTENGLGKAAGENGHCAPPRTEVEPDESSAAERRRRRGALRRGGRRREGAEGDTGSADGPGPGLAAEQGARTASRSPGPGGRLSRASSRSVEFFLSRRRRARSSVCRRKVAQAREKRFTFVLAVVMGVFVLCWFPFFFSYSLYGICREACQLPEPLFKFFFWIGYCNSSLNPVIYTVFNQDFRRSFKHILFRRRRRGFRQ
T1 sequence (P19328 whole entry): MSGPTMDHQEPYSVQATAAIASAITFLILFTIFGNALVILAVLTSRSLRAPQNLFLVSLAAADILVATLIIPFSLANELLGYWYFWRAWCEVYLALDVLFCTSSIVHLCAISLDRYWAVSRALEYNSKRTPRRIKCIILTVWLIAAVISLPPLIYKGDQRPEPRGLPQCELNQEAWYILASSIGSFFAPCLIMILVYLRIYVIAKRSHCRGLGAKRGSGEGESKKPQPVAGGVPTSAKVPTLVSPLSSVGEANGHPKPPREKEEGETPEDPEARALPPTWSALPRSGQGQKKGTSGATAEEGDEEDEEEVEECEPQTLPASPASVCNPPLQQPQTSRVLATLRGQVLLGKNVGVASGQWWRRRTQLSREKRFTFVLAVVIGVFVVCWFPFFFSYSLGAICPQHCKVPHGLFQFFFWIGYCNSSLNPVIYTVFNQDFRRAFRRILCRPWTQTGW
T1 sequence (P22909 whole entry): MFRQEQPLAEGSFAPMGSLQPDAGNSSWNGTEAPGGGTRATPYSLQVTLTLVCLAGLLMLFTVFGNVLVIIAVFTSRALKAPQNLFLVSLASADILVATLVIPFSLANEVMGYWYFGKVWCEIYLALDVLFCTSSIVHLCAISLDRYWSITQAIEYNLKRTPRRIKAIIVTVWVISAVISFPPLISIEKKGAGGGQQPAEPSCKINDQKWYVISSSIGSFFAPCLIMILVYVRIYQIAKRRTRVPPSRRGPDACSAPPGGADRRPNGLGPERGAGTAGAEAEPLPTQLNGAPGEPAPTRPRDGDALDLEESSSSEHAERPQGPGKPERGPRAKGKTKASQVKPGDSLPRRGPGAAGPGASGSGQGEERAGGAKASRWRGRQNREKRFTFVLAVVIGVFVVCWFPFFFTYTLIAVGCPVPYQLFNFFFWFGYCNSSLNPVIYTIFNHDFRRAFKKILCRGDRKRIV
The experiment in a line: Antagonist activity against B-HT 933-induced alpha-2-adrenoceptor-mediated vasoconstriction in pithed normotensive rats. The assay is classed as functional.

The target of assay [2] is T1, Adrenergic receptor alpha-2. The experiment in a line: Inhibition of specific [3H]clonidine binding (0.4 nM) to rat brain membranes alpha-2 adrenergic receptor. The assay is classed as cell membranes, Membrane.
The target of assay [3] is T2, Adrenergic receptor alpha-1 (Homo sapiens, UniProt P35348+P25100+P35368).
T2 sequence (P35348 whole entry): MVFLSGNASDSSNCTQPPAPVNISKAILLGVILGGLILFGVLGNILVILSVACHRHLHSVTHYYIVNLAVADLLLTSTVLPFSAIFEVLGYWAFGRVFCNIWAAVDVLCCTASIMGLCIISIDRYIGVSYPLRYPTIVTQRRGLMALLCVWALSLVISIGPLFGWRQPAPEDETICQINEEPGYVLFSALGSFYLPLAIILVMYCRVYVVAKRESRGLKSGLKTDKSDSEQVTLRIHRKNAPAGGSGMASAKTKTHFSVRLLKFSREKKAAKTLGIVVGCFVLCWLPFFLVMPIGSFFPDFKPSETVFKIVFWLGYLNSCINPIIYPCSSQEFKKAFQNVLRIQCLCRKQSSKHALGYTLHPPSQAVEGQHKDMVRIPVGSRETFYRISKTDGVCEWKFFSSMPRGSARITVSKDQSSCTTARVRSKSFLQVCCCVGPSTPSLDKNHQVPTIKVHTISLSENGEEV
T2 sequence (P25100 whole entry): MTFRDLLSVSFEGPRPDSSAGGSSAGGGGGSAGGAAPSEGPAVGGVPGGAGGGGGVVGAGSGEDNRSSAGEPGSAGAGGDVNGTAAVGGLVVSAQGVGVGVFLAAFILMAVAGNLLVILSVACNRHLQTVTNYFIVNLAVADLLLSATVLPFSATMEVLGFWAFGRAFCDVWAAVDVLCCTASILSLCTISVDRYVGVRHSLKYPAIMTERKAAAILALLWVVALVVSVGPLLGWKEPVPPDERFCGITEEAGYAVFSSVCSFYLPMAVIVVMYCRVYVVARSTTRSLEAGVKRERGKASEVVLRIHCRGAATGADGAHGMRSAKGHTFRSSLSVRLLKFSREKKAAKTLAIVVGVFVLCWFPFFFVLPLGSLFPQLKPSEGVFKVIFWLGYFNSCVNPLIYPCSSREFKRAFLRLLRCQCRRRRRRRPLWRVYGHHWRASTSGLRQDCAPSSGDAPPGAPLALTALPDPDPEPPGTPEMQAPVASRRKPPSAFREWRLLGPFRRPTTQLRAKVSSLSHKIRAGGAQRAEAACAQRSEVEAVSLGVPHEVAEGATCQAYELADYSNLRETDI
T2 sequence (P35368 whole entry): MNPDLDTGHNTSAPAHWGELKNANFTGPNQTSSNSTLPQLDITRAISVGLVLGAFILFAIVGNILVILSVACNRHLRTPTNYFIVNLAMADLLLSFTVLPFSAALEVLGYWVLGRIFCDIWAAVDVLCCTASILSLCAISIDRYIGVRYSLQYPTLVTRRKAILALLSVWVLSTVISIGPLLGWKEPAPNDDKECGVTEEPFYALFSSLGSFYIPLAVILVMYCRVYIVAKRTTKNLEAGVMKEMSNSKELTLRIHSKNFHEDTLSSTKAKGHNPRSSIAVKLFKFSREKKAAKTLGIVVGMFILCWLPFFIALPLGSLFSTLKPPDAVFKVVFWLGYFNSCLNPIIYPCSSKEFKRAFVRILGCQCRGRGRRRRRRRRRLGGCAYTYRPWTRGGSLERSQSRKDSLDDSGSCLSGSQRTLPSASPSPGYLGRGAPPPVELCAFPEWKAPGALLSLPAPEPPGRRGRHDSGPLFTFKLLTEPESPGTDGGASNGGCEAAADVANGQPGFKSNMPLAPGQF
The experiment in a line: In vitro antagonist activity against (-)-phenylephrine or (-)-norepinephrine-induced alpha1-adrenoceptor-mediated vasoconstriction of rabbit isolated pulmonary artery. The assay is classed as functional, Oryctolagus cuniculus. As to conditions: target entry is the homologue from another species.

In general, pA2 refers to the negative logarithm of the molar antagonist concentration that doubles the agonist concentration needed for the same response. What is called IC50 is the midpoint of a concentration-inhibition curve. Lower therefore signals inhibition by little substance.

`CN1C[C@H](C(=O)N[C@]2(C)O[C@@]3(O)[C@@H]4CCCN4C(=O)[C@H](Cc4ccccc4)N3C2=O)C[C@@H]2c3cccc4[nH]cc(c34)C[C@H]21` [DIHYDROERGOTAMINE]: the pA2 in assay [1] turned out to be 7.25; in assay [3], 7.55. Besides, the IC50 in assay [2] is 0.0037 µM.
Consider `C=CCN1Cc2ccccc2-c2ccccc2C1` [AZAPETINE], for which the pA2 in assay [1] stood at 4.88; in assay [3], 6.96. In addition, the IC50 in assay [2] stood at 1.3 µM.

Values taken from ChEMBL document CHEMBL1122788, “Quantitative relationships between alpha-adrenergic activity and binding affinity of alpha-adrenoceptor agonists and antagonists” (J Med Chem, 1984).
